Where no end group is shown, it is not given here.

The values that follow come from patent US10869931B2, “Polyethylene glycol-modified angiogenesis inhibitor HM-1 and application thereof” (NANJING ANJI BIOLOGICAL TECHNOLOGY CO.,LTD, priority 2016, dated 2020).

For series [1], the system named is Lung cancer tumor cells. The experiment in a line: MTT proliferation inhibition, lung cancer cells. In kind it is cell-based, human. Details: concentration or dose not given beside the values. Particulars: 48 h. The method, then:
(§1) The activity of mPEG-HM-1 to inhibit the growth of various tumor cells was examined by MTT assay. The tumor cells were cultured to a concentration of 90% or more in a 37° C., 5% CO2 incubator and collected by trypsinization. The cells were resuspended in the culture medium and counted under a microscope to adjust the cell concentration to 2×10^4 cells/mL, the cell suspension was inoculated into a 96-well plate at 100 μL/well and incubated overnight at 37° C. in a 5% CO2 incubator. mPEG-HM-1 was diluted with the culture solution to each predetermined concentration. Docetaxel is diluted to the final concentration with the culture medium. After the cells were fully attached, each dilution was added to a 96-well plate (100 μL/well). The mPEG-HM-1 dilution was added as a drug-administered group, and docetaxel was added as a positive control group, and a culture solution without any drug was used as a negative control group. Incubate for 48 h at 37° C. in a 5% CO2 incubator. 5 mg/mL of MTT was added to a 96-well plate at 20 μL per well, and incubation was continued for 4 hours. The medium was aspirated, dissolved in 150 μL of DMSO per well, and gently mixed by shaking for 10 min. The absorbance was measured at a measurement wavelength of 570 nm and a reference wavelength of 630 nm using a microplate reader, and the rate of growth inhibition (proliferation inhibition, PI) was calculated. The formula is as follows: PI (%)=1−administration group/negative group
(§2) The test was repeated 3 times independently, and the results obtained by the test were expressed as mean±SD, and the test results are shown in Table 15 to Table 18.

Series [2] concerns Cervical cancer tumor cells. As to the kind of experiment: MTT proliferation inhibition, cervical cancer cells. In kind it is cell-based, human. Details: concentration or dose not given beside the values. Particulars: 48 h. As to the method: as §1, §2
For series [3], the system named is Breast cancer tumor cells. As to the kind of experiment: MTT proliferation inhibition, breast cancer cells. In kind it is cell-based, human. Details: concentration or dose not given beside the values. Particulars: 48 h. The method, then:
as §1, §2

Series [4] has as its system Esophageal cancer tumor cells. As to the kind of experiment: MTT proliferation inhibition, esophageal cancer cells. It is filed as cell-based, human. Details: concentration or dose not given beside the values. To be noted: 48 h. The method, then: as §1, §2
In series [5] the test system is Prostate cancer tumor cells. As to the kind of experiment: MTT proliferation inhibition, prostate cancer cells. Particulars: 48 h. Details: concentration or dose not given beside the values. In kind it is cell-based, human. The method, then:
as §1, §2

The subject of series [6] is Colorectal cancer tumor cells. The experiment in a line: MTT proliferation inhibition, colorectal cancer cells. It is filed as cell-based, human. Details: concentration or dose not given beside the values. Particulars: 48 h. As to the method: as §1, §2
Series [7] relates to Melanoma tumor cells. As to the kind of experiment: MTT proliferation inhibition, melanoma cells. Details: concentration or dose not given beside the values. To be noted: 48 h. In kind it is cell-based, human. As to the method:
as §1, §2

The test system of series [8] is Gastric cancer tumor cells. As to the kind of experiment: MTT proliferation inhibition, gastric cancer cells. To be noted: 48 h. Details: concentration or dose not given beside the values. In kind it is cell-based, human. The method, then: as §1, §2
In series [9] the test system is Pancreatic cancer tumor cells. As to the kind of experiment: MTT proliferation inhibition, pancreatic cancer cells. Details: concentration or dose not given beside the values. Particulars: 48 h. It is filed as cell-based, human. The method, then: as §1, §2
The test system of series [10] is Kidney cancer tumor cells. As to the kind of experiment: MTT proliferation inhibition, kidney cancer cells. It is filed as cell-based, human. Details: concentration or dose not given beside the values. Particulars: 48 h. As to the method: as §1, §2
Series [11] has as its system Brain tumor cells. As to the kind of experiment: MTT proliferation inhibition, brain tumor cells. Details: concentration or dose not given beside the values. It is filed as cell-based, human. To be noted: 48 h. The method, then: as §1, §2
Series [12] has as its system Ovarian cancer tumor cells. The experiment in a line: MTT proliferation inhibition, ovarian cancer cells. To be noted: 48 h. It is filed as cell-based, human. Details: concentration or dose not given beside the values. The method, then:
as §1, §2

Series [13] deals with Uterine cancer tumor cells. The experiment in a line: MTT proliferation inhibition, uterine cancer cells. In kind it is cell-based, human. Details: concentration or dose not given beside the values. To be noted: 48 h. The method, then:
as §1, §2

Series [14] relates to Hemangioma tumor cells. The experiment in a line: MTT proliferation inhibition, hemangioma cells. In kind it is cell-based, human. Details: concentration or dose not given beside the values. To be noted: 48 h. The method, then:
as §1, §2

The test system of series [15] is sarcoma tumor cells. As to the kind of experiment: MTT proliferation inhibition, sarcoma cells. It is filed as cell-based, human. Details: concentration or dose not given beside the values. Particulars: 48 h. The method, then: as §1, §2
For series [16], the system named is Liver cancer tumor cells. As to the kind of experiment: MTT proliferation inhibition, liver cancer cells. In kind it is cell-based, human. Details: concentration or dose not given beside the values. Particulars: 48 h. The method, then: as §1, §2
Series [17] concerns Head and neck cancer tumor cells. The experiment in a line: MTT proliferation inhibition, head and neck cancer cells. In kind it is cell-based, human. Details: concentration or dose not given beside the values. Particulars: 48 h. The method, then: as §1, §2
Series [18] concerns Thyroid cancer tumor cells. As to the kind of experiment: MTT proliferation inhibition, thyroid cancer cells. In kind it is cell-based, human. Details: concentration or dose not given beside the values. Particulars: 48 h. The method, then:
as §1, §2

Series [19] has as its system Bladder Cancer tumor cells. The experiment in a line: MTT proliferation inhibition, bladder cancer cells. To be noted: 48 h. Details: concentration or dose not given beside the values. It is filed as cell-based, human. As to the method:
as §1, §2

Series [20] is described as follows: Half-life / pharmacokinetics of mPEG-HM-1 and HM-1. To be noted: in vivo.

Regarding `CC(=O)O[C@@]12CO[C@@H]1C[C@H](O)[C@@]1(C)C(=O)[C@H](O)C3=C(C)[C@@H](OC(=O)[C@H](O)[C@@H](NC(=O)OC(C)(C)C)c4ccccc4)C[C@@](O)([C@@H](OC(=O)c4ccccc4)[C@H]21)C3(C)C` [Docetaxel, reference compound], the “rate of growth inhibition” value in series [1] is on record as 68.23 ± 18.32%; in [2], 80.21 ± 19.54%; in series [3], 65.31 ± 21.44%; in series [4], 60.18 ± 17.02%; in series [5] it was 45.62 ± 14.03%; in series [6], 74.59 ± 20.33%. The “rate of growth inhibition” value is 83.49 ± 23.27% in [7]; 77.34 ± 22.18% in series [8]; 71.13 ± 20.13% in series [9]; 72.93 ± 18.31% in [10]; 59.23 ± 16.21% in series [11]; 85.12 ± 19.39% in [12]. Besides, the “rate of growth inhibition” value in series [13] is 80.25 ± 22.18%; in [14], 56.92 ± 16.76%; in [15] it was 51.31 ± 10.49%; in [16] it was 66.70 ± 17.25%; in series [17] it was 49.23 ± 10.01%; in [18] it was 56.21 ± 14.28%. The “rate of growth inhibition” value in series [19] worked out at 46.72 ± 13.65%.
“RGADRAGGGGRGD [HM-1, Arg-Gly-Ala-Asp-Arg-Ala-Gly-Gly-Gly-Gly-Arg-Gly-Asp]”: in series [20], the area under the curve AUC(0-inf) (as a rule, total exposure, with the tail of the curve extrapolated) is 32800 ± 8230 ng·h/mL and the mean residence time (MRT inf) (commonly a mean duration of stay, worked out from the concentration-time curve) amounted to 4.02 ± 0.78 min.
